Read-outs that look alike come from different tables or passages of the source.
Legend:
[1] = tested on: Aspergillus brasiliensis ATCC 16404; experiment: Synergy test, high resolution MIC microtiter plate assay, Potato Dextrose Broth; assay type: cell-based; settings: A. brasiliensis ATCC 16404, PDB, contact time 7 days; for SI (Synergy Index, Qa/QA+Qb/QB): SI less than one = synergy; for MIC: Aspergillus brasiliensis, ATCC16404, 168 h, 25° C.
Excerpt: (§1) One measure of synergism is the industrially accepted method described by Kull, F. C.; Eisman, P. C.; Sylwestrowicz, H. D. and Mayer, R. L., in Applied Microbiology 9:538-541 (1961), using the ratio determined by the formula:
(§2) Qa/QA+Qb/QB=Synergy Index (“SI”)
(§3) wherein: • QA=concentration of compound A (first component) in ppm, acting alone, which produced an end point (MIC of Compound A). • Qa=concentration of compound A in ppm, in the mixture, which produced an end point. • QB=concentration of compound B (second component) in ppm, acting alone, which produced an end point (MIC of Compound B). • Qb=concentration of compound B in ppm, in the mixture, which produced an end point.
(§4) When the sum of Qa/QA and Qb/QB is greater than one, antagonism is indicated. […] The lower the SI, the greater is the synergy shown by that particular mixture. The minimum inhibitory concentration (MIC) of a microbicide is the lowest concentration tested under a specific set of conditions that prevents the growth of the tested microorganisms.
(§5) Synergy tests were conducted using standard microtiter plate assays with media designed for optimal growth of the test microorganism. Potato Dextrose Broth (PDB medium) was used for testing yeast and mold. In this method, a wide range of combinations of microbicides and other personal care raw materials was tested by conducting high resolution MIC assays in the presence of lactic acid. High resolution MICs were determined by adding varying amounts of microbicide to one column of a microtitre plate and doing subsequent […] dilutions using an automated liquid handling system to obtain a series of closely spaced endpoints.
(§6) The synergy of the combinations of the present invention was determined against a yeast, Candida albicans (C. albicans—ATCC 10231) and a mold, Aspergillus brasiliensis (A. brasiliensis—ATCC 16404). The yeast and mold were used at concentrations of 5×10^5 cells per mL. These microorganisms are representative of natural contaminants in many consumer and industrial applications.
(§7) In this test, First Component (A) was lactic acid and the Second Component (B) was caprylic acid.
(§8) First Component (A)=Lactic acid (LA) Second Component (B)=Caprylic acid (CA) • Table 1: Aspergillus brasiliensis • ATCC 16404 • Potato Dextrose Broth • Contact Time=7 days • Table 2: Candida albicans • ATCC 10231 • Potato Dextrose Broth • Contact Time=48 hours

[2] = tested on: Candida albicans ATCC 10231; experiment: as above; assay type: cell-based; settings: C. albicans ATCC 10231, PDB, contact time 48 hours
Excerpt: as §1, §2, §3, §4, §5, §6, §7, §8

MIC ([1]; caprylic acid alone, read-out: Caprylic Acid, ppm: MIC for caprylic acid alone (QB))	MIC ([2]; Candida albicans, ATCC10231, caprylic acid alone, 25° C., read-out: Caprylic Acid, ppm: MIC for caprylic acid alone (QB))	MIC ([1]; lactic acid alone, read-out: Lactic Acid, ppm: MIC for lactic acid alone (QA))	SMILES	SI (Synergy Index, Qa/QA+Qb/QB) [1]	SI (Synergy Index, Qa/QA+Qb/QB) ([2]; SI less than one = synergy)
10000 µg/mL	60 µg/mL		CCCCCCCC(=O)O [Caprylic Acid, octanoic acid]	1.00	1.00
		30000 µg/mL	CC(O)C(=O)O (stereo not drawn) [Lactic Acid, 2-hydroxypropanoic acid]	1.00	

— US20200138023A1, “MICROBICIDAL COMPOSITION” (DDP Specialty Electronic Materials US 8, LLC, priority 2017, published 2020)
